Test results as given in BigSolDB 2.1.

CC(=O)c1ccc2ccc(C)cc2c1
solubility (mole fraction)
Conditions	in n-dodecane	in n-heptane	in n-octane
273.15 K	0.00013	0.000115	0.000114
275.15 K	0.000135	0.000124	–
276.15 K	–	–	0.00013
277.15 K	–	0.000138	–
278.15 K	0.000158	–	–
279.15 K	–	0.000157	0.000152
281.15 K	0.000195	–	0.000172
282.15 K	–	0.000182	–
283.15 K	0.000205	–	–
284.15 K	–	–	0.000194
286.15 K	0.000239	0.000228	–
287.15 K	–	–	0.000231
289.15 K	0.000287	0.000268	0.000254
291.15 K	–	0.000297	–
292.15 K	0.000339	–	0.000291
293.15 K	–	0.000344	–
295.15 K	0.00041	–	0.000343
297.15 K	0.000454	–	0.000387
300.15 K	0.000526	–	–

CC(=O)c1ccc2cc(C)ccc2c1
Conditions	solubility (mole fraction)
in n-dodecane, 273.15 K	0.00876
in n-dodecane, 279.65 K	0.0122
in n-dodecane, 283.15 K	0.0146
in n-dodecane, 288.15 K	0.0188
in n-dodecane, 291.15 K	0.022
in n-dodecane, 293.65 K	0.0254
in n-dodecane, 296.65 K	0.0291
in n-dodecane, 299.15 K	0.0339
in n-dodecane, 301.65 K	0.037
in n-dodecane, 305.15 K	0.046
in n-dodecane, 308.15 K	0.0535
in n-dodecane, 311.15 K	0.0683
in n-heptane, 273.15 K	0.00938
in n-heptane, 277.15 K	0.0104
in n-heptane, 279.15 K	0.0114
in n-heptane, 282.15 K	0.013
in n-heptane, 285.15 K	0.0151
in n-heptane, 288.15 K	0.0177
in n-heptane, 291.15 K	0.0217
in n-heptane, 294.15 K	0.0258
in n-heptane, 297.15 K	0.0293
in n-heptane, 299.65 K	0.0345
in n-heptane, 303.15 K	0.0428
in n-heptane, 306.15 K	0.0484
in n-heptane, 309.15 K	0.0566
in n-heptane, 311.15 K	0.0629
in n-heptane, 313.15 K	0.0716
in n-heptane, 316.15 K	0.0852
in n-heptane, 319.15 K	0.105
in n-octane, 273.15 K	0.00895
in n-octane, 277.65 K	0.0105
in n-octane, 283.15 K	0.0139
in n-octane, 287.15 K	0.0172
in n-octane, 291.15 K	0.0211
in n-octane, 293.15 K	0.0239
in n-octane, 297.15 K	0.029
in n-octane, 301.15 K	0.0371
in n-octane, 303.15 K	0.0417
in n-octane, 306.65 K	0.0487
in n-octane, 311.15 K	0.0623
in n-octane, 314.15 K	0.0755
in n-octane, 316.15 K	0.0861
in n-octane, 319.15 K	0.106
